Measurements: patent US10750743B2, “Pyridazinone herbicides” (E.I. DU PONT DE NEMOURS AND COMPANY, priority 2015, dated 2020)

Legend:
Type in all cases: in vivo
[1] = tested on: pigweed (Amaranthus retroflexus); experiment: Test A preemergence, directed soil spray, visual injury rating; conditions: 0 is no effect, 100 is complete control
In short: (§1)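 Compounds in a surfactant-containing solvent were applied as a directed soil spray preemergence, or postemergence to plants 2-10 cm tall at the one- to two-leaf stage, in loam-sand blend. After about 10 d in the greenhouse, injury was rated visually against untreated controls on a 0-100 scale (100 = complete control).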

[2] = tested on: barnyardgrass (Echinochloa crus-galli); experiment: as above; conditions: 0 is no effect, 100 is complete control
In short: as §1

kochia (Kochia scoparia) [3] = experiment: as above; conditions: 0 is no effect, 100 is complete control
In short: as §1

[4] = tested on: ryegrass, It. (Italian ryegrass, Lolium multiflorum); experiment: as above; conditions: 0 is no effect, 100 is complete control
In short: as §1

[5] = tested on: ragweed (common ragweed, Ambrosia elatior); experiment: as above; conditions: 0 is no effect, 100 is complete control
In short: as §1

[6] = tested on: foxtail, giant (giant foxtail, Setaria faberii); experiment: as above; conditions: 0 is no effect, 100 is complete control
In short: as §1

[7] = tested on: galium (catchweed bedstraw, Galium aparine); experiment: Test A postemergence application, visual injury rating; conditions: 0 to 100 scale, 0 no effect, 100 complete control
In short: as §1

[8] = tested on: wheat (Triticum aestivum); experiment: as above; conditions: 0 to 100 scale, 0 no effect, 100 complete control
In short: as §1

[9] = tested on: pigweed (Amaranthus retroflexus); experiment: as above; conditions: 0 to 100 scale, 0 no effect, 100 complete control
In short: as §1

[10] = tested on: blackgrass (Alopecurus myosuroides); experiment: as above; conditions: 0 to 100 scale, 0 no effect, 100 complete control
In short: as §1

[11] = tested on: barnyardgrass (Echinochloa crus-galli); experiment: as above; conditions: 0 to 100 scale, 0 no effect, 100 complete control
In short: as §1

kochia (Kochia scoparia) [12] = experiment: as above; conditions: 0 to 100 scale, 0 no effect, 100 complete control
In short: as §1

[13] = tested on: ryegrass, It. (Italian ryegrass, Lolium multiflorum); experiment: as above; conditions: 0 to 100 scale, 0 no effect, 100 complete control
In short: as §1

[14] = tested on: ragweed (common ragweed, Ambrosia elatior); experiment: as above; conditions: 0 to 100 scale, 0 no effect, 100 complete control
In short: as §1

corn (Zea mays) = experiment: as above; conditions: 0 to 100 scale, 0 no effect, 100 complete control
In short: as §1

[15] = tested on: foxtail, giant (giant foxtail, Setaria faberii); experiment: as above; conditions: 0 to 100 scale, 0 no effect, 100 complete control
In short: as §1

[16] = tested on: sedge, umbrella (small-flower umbrella sedge, Cyperus difformis); experiment: Test B flooded paddy test, visual rating; conditions: Flood, 250 g ai/ha, applied to paddy water, rated after 13 to 15 d
In short: (§2)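 Plants grown to the 2-leaf stage. At treatment, pots were flooded to 3 cm above the soil, compound was applied directly to the paddy water, and that depth was held throughout. After 13 to 15 d in the greenhouse, response was rated visually against controls on a 0 (no effect) to 100 (complete control) scale.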

[17] = tested on: barnyardgrass (Echinochloa crus-galli); experiment: Test B flooded paddy test, visual rating; conditions: Flood, 250 g ai/ha, applied to paddy water, rated after 13 to 15 d
In short: as §2

[18] = tested on: ducksalad (Heteranthera limosa); experiment: Test B flooded paddy test, visual rating; conditions: Flood, 250 g ai/ha, applied to paddy water, rated after 13 to 15 d
In short: as §2

rice (Oryza sativa) = experiment: Test B flooded paddy test, visual rating; conditions: Flood, 250 g ai/ha, applied to paddy water, rated after 13 to 15 d
In short: as §2

CC(=O)Oc1c(C)nn(C)c(=O)c1-c1ccc(Cl)c2ccsc12 [Compound 51]
Plant response rating (0 to 100 scale), Pigweed ([1]; 31 g ai/ha): 0 | Plant response rating (0 to 100 scale), Pigweed ([1]; 125 g ai/ha): 60 | Plant response rating (0 to 100 scale), Barnyardgrass ([2]; 31 g ai/ha): 0 | Plant response rating (0 to 100 scale), Barnyardgrass ([2]; 125 g ai/ha): 20 | Plant response rating (0 to 100 scale), Kochia (kochia (Kochia scoparia) [3]; 31 g ai/ha): 0 | Plant response rating (0 to 100 scale), Kochia (kochia (Kochia scoparia) [3]; 125 g ai/ha): 20 | Plant response rating (0 to 100 scale), Ryegrass, It. ([4]; 31 g ai/ha): 60 | Plant response rating (0 to 100 scale), Ryegrass, It. ([4]; 125 g ai/ha): 100 | Plant response rating (0 to 100 scale), Ragweed ([5]; 31 g ai/ha): 0 | Plant response rating (0 to 100 scale), Ragweed ([5]; 125 g ai/ha): 0 | Plant response rating (0 to 100 scale), Foxtail, Giant ([6]; 31 g ai/ha): 0 | Plant response rating (0 to 100 scale), Foxtail, Giant ([6]; 125 g ai/ha): 0 | Galium plant response rating ([7]; 31 g ai/ha): 100 | Galium plant response rating ([7]; 125 g ai/ha): 100 | Wheat plant response rating ([8]; 31 g ai/ha): 0 | Wheat plant response rating ([8]; 125 g ai/ha): 0 | Pigweed plant response rating ([9]; 31 g ai/ha): 50 | Pigweed plant response rating ([9]; 125 g ai/ha): 60 | Blackgrass plant response rating ([10]; 31 g ai/ha): 0 | Blackgrass plant response rating ([10]; 125 g ai/ha): 10 | Barnyardgrass plant response rating ([11]; 31 g ai/ha): 0 | Barnyardgrass plant response rating ([11]; 125 g ai/ha): 10 | Kochia plant response rating (kochia (Kochia scoparia) [12]; 31 g ai/ha): 70 | Kochia plant response rating (kochia (Kochia scoparia) [12]; 125 g ai/ha): 90 | Ryegrass, It. plant response rating ([13]; 31 g ai/ha): 70 | Ryegrass, It. plant response rating ([13]; 125 g ai/ha): 100 | Ragweed plant response rating ([14]; 31 g ai/ha): 0 | Ragweed plant response rating ([14]; 125 g ai/ha): 50 | Corn plant response rating (corn (Zea mays); 31 g ai/ha): 0 | Corn plant response rating (corn (Zea mays); 125 g ai/ha): 0 | Foxtail, Giant plant response rating ([15]; 31 g ai/ha): 0 | Foxtail, Giant plant response rating ([15]; 125 g ai/ha): 0 | Sedge, Umbrella plant response rating (0 to 100 scale, 0 is no effect, 100 is complete control) [16]: 0 | Barnyardgrass plant response rating (0 to 100 scale, 0 is no effect, 100 is complete control) [17]: 0 | Ducksalad plant response rating (0 to 100 scale, 0 is no effect, 100 is complete control) [18]: 0 | Rice plant response rating (0 to 100 scale, 0 is no effect, 100 is complete control) (rice (Oryza sativa)): 0
